Results taken from US6017933A, “Mannich bases of conjugated styryl ketones” (University of Saskatchewan Technologies Inc., priority 1999, dated 2000).

What was measured:
[1] = system: L1210 cells; experiment: Cytotoxicity, murine L1210 leukemic cells; type: cell-based; details: Mus musculus, mean
[2] = system: CEM cells; experiment: Cytotoxicity, CEM human T-lymphocytes; details: for IC50: Homo sapiens, CCRF-CEM, read-out: CEM cells IC50; for TIL1210 (CEM cells): IC50 T-lymphocytes (CEM)/IC50 L1210; for TIP388 (CEM cells): IC50 T-lymphocytes (CEM)/IC50 P388; for TIht (CEM cells): IC50 T-lymphocytes (CEM)/IC50 human tumors
[3] = system: Molt 4/C8 cells; experiment: Cytotoxicity, Molt 4/C8 human T-lymphocytes; details: for TIL1210 (Molt 4/C8 cells): IC50 T-lymphocytes (Molt 4/C8)/IC50 L1210; for TIP388 (Molt 4/C8 cells): IC50 T-lymphocytes (Molt 4/C8)/IC50 P388; for TIht (Molt 4/C8 cells): IC50 T-lymphocytes (Molt 4/C8)/IC50 human tumors; for IC50: read-out: Molt 4/C8 cells IC50
[4] = system: P388 cells; experiment: Cytotoxicity, murine P388 leukemic cells (P388 D1); details: for IC50: read-out: P388 cells IC50
[5] = system: human tumors; experiment: Cytotoxicity, human tumor cell line panel (approximately 55 lines); details: for Selective toxicity towards leukemia: human tumor screen; for IC50: read-out: human tumors IC50, mean graph midpoint, approximately 55 cell lines, hydrobromide salts used for 4a, 11a-e

Compound	IC50 [1] [µM]	IC50 [2] [µM]	TIL1210 (CEM cells) [2]	TIP388 (CEM cells) [2]	TIht (CEM cells) [2]	TIL1210 (Molt 4/C8 cells) [3]	TIP388 (Molt 4/C8 cells) [3]	TIht (Molt 4/C8 cells) [3]	IC50 [3] [µM]	IC50 [4] [µM]	Selective toxicity towards leukemia [5]	IC50 [5] [µM]	potency relative to melphalan, P388 [4]	activity relative to melphalan, human tumors [5]
CCN(CC)CCC(=O)/C=C/c1ccccc1 [Compound 1a]	25.7	33.9	1.32	19.92	3.47	1.66	25.04	4.36	42.6	1.7	this property was also noted	9.77		
CCN(CC)CCC(=O)/C=C/c1ccc(Cl)cc1 [Compound 1b]	41	53.3	1.30	177.6		0.98	134.6		40.4	0.3			more than half the potency of melphalan	
CCN(CC)CCC(=O)/C=C/c1ccc(Cl)c(Cl)c1 [Compound 1c]	61.2	55.8	0.91	143.2	14.70	0.74	116.5	11.96	45.4	0.39		3.8	more than half the potency of melphalan	
CCN(CC)CCC(=O)/C=C/c1ccc(C)cc1 [Compound 1d]	52.9	48.6	0.92	44.19		1.05	50.65		55.7	1.1				
CCN(CC)CCC(=O)/C=C/c1ccc(OC)cc1 [Compound 1e]	44.3	48.6	1.10	72.55		1.17	77.69		52.1	0.67				
CCN(CC)CCC(=O)c1ccccc1 [Compound 4a]	20.3	38.5	1.90	14.81	1.53	0.86	6.68	0.69	17.4	2.6		25.1		
CCN(CC)CCC(=O)c1ccc(Cl)cc1 [Compound 4b]	36.9	40	1.08	12.50		0.62	7.13		22.8	3.2				
CCN(CC)CCC(=O)c1ccc(Cl)c(Cl)c1 [Compound 4c]													more than half the potency of melphalan	
CCN(CC)CCC(=O)c1ccc(C)cc1 [Compound 4d]	21.5	64.1	2.98	29.15	2.44	2.96	28.97	2.42	63.7	2.2		26.3		
O=C(/C=C/c1ccccc1)CCN1CCN(CCC(=O)/C=C/c2ccccc2)CC1 [Compound 8a]	5.78	5.55	0.96	3.95	0.46	0.95	8.89	0.46	5.51 ± 2.73	0.62		12		
O=C(CCN1CCN(CCC(=O)c2ccccc2)CC1)c1ccccc1 [Compound 8b]	9.71	16	1.65	5.64		2.69	9.20		26.1	2.84				
CCN1CCC(O)(/C=C/c2ccccc2)C(C(=O)/C=C/c2ccccc2)C1 (stereo not shown) [Compound 9a]	5.3	16.5	3.12	11.81	6.02	5.64	21.36	10.88	29.9	1.4		2.75		
CCN1CCC(O)(/C=C/c2ccc(Cl)c(Cl)c2)C(C(=O)/C=C/c2ccc(Cl)c(Cl)c2)C1 (stereo not shown) [Compound 9c]										0.4		0.38	more than half the potency of melphalan	
CCN1CCC(O)(/C=C/c2ccc(OC)cc2)C(C(=O)/C=C/c2ccc(OC)cc2)C1 (stereo not shown) [Compound 9e]	25.6	11.7	0.46	2.35	1.41	0.81	4.14	2.49	20.7	5	this property was also noted	8.31		
CC[N+]1(C)CCC(O)(/C=C/c2ccc(C)cc2)C(C(=O)/C=C/c2ccc(C)cc2)C1 (stereo not shown) [Compound 10d]	13.8	3.92	0.28	6.32		0.45	9.98		6.19 ± 0.7	0.62				
CCN1CCC(O)(c2ccccc2)C(C(=O)c2ccccc2)C1 (stereo not shown) [Compound 11a]	20.1	45.7	2.28	42.70	1.51	1.80	33.78	1.20	36.1	1.07		30.2		
CCN1CCC(O)(c2ccc(Cl)cc2)C(C(=O)c2ccc(Cl)cc2)C1 (stereo not shown) [Compound 11b]	15.7	102	6.52	19.89	1.23	3.68	11.21	0.69	57.6	5.14		83.2		
CCN1CCC(O)(c2ccc(Cl)c(Cl)c2)C(C(=O)c2ccc(Cl)c(Cl)c2)C1 (stereo not shown) [Compound 11c]										3.11		16.6		
CC[N+]1(C)CCC(O)(c2ccccc2)C(C(=O)c2ccccc2)C1 (stereo not shown) [Compound 12a]										1.3	Selective toxicity towards leukemia was observed	12.9		
CC[N+]1(C)CCC(O)(c2ccc(Cl)cc2)C(C(=O)c2ccc(Cl)cc2)C1 (stereo not shown) [Compound 12b]										1.5	Selective toxicity towards leukemia was observed	12.9		
CC[N+]1(C)CCC(O)(c2ccc(C)cc2)C(C(=O)c2ccc(C)cc2)C1 (stereo not shown) [Compound 12d]										2.1		50.1		five times more potent than melphalan
CC[N+]1(C)CCC(O)(c2ccc(OC)cc2)C(C(=O)c2ccc(OC)cc2)C1 (stereo not shown) [Compound 12e]										0.98	Selective toxicity towards leukemia was observed	10.2		
